Source: ChEMBL document CHEMBL5046251, “Discovery of a Series of Pyrimidine Carboxamides as Inhibitors of Vanin-1” (J Med Chem, 2022)
Active and inactive are the calls of the source. The rule behind the calls is not given here.

Columns and labels:
[1] = Intrinsic clearance in human liver microsomes; format: ADME, Microsome
[2] = Apparent permeability across apical to basolateral side in RRCK cells; conditions: dog, MDCK
[3] = Lipophilicity, log D of the compound in Octanol/buffer by shake-flask method
Pantetheinase [4] = target: T1, Pantetheinase (Homo sapiens, UniProt O95497); assay: Inhibition of recombinant N-terminal FLAG/His6-tagged human vanin-1 expressed in CHO cells using Pantetheine-7-amino-4-trifluoromethykournarin as substrate preincubated for 30 mins followed by substrate addition and measured after 60 mins
T1 sequence (O95497 whole entry): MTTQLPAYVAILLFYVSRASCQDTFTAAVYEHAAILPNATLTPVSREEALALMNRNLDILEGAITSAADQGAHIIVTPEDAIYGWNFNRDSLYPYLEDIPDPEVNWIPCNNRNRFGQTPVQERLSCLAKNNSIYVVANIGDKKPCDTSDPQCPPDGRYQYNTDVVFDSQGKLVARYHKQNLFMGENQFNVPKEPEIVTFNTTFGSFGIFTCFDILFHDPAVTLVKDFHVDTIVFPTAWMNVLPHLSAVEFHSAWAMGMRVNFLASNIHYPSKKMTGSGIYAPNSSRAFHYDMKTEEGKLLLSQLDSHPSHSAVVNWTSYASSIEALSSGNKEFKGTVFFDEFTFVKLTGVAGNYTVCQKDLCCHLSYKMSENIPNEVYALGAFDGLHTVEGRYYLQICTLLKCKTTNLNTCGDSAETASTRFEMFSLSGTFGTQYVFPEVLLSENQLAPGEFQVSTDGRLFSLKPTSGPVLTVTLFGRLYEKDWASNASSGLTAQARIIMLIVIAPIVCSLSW

Biotinidase = target: T2, Biotinidase (Homo sapiens, UniProt P43251); assay: Inhibition of N-terminal FLAG/His6-tagged human biotinidase expressed in COS cells using biotinyl-7-amino-4-trifluoromethylcoumarin as substrate preincubated for 10 mins followed by substrate addition and measured after 90 mins; format: cell-based
T2 sequence (P43251 whole entry): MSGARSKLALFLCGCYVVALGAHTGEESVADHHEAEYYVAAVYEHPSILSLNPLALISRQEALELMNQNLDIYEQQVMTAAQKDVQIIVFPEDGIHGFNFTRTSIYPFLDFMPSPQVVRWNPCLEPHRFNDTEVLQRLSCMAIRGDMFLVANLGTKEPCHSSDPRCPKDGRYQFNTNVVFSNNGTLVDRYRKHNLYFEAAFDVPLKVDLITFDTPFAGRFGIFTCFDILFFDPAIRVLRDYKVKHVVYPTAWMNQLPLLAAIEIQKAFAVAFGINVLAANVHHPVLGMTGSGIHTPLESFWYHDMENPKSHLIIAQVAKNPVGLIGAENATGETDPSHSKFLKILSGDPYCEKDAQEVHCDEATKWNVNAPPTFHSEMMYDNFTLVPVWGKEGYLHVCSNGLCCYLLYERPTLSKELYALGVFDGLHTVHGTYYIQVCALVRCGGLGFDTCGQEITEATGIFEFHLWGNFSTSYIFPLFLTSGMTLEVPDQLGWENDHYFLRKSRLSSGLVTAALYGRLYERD

[5] = target: T3, Pantetheinase (Homo sapiens) (UniProt O95497); assay: Binding affinity to recombinant N-terminal FLAG/His6-tagged human vanin-1 expressed in CHO cells assessed as binding constant (Kon) by surface plasmon resonance analysis
T3 sequence (whole entry): T1 sequence (O95497 whole entry)

Pantetheinase [6] = target: T1, Pantetheinase; assay: Binding affinity to recombinant N-terminal FLAG/His6-tagged human vanin-1 expressed in CHO cells assessed as dissociation constant by surface plasmon resonance analysis
[7] = target: T3, Pantetheinase (Homo sapiens); assay: Binding affinity to recombinant N-terminal FLAG/His6-tagged human vanin-1 expressed in CHO cells assessed as binding constant (Koff) by surface plasmon resonance analysis
[8] = target: T3, Pantetheinase (Homo sapiens); assay: Binding affinity to recombinant N-terminal FLAG/His6-tagged human vanin-1 expressed in CHO cells assessed as dissociative half life by surface plasmon resonance analysis
Pantetheinase [9] = target: T1, Pantetheinase; assay: Inhibition of recombinant N-terminal FLAG/His6-tagged human vanin-1 expressed in CHO cells at 10 uM by 1H NMR analysis; format: cell-based
Pantetheinase [10] = target: T4, Pantetheinase (Mus musculus, UniProt Q9Z0K8); assay: Inhibition of mouse vanin-1
T4 sequence (Q9Z0K8 whole entry): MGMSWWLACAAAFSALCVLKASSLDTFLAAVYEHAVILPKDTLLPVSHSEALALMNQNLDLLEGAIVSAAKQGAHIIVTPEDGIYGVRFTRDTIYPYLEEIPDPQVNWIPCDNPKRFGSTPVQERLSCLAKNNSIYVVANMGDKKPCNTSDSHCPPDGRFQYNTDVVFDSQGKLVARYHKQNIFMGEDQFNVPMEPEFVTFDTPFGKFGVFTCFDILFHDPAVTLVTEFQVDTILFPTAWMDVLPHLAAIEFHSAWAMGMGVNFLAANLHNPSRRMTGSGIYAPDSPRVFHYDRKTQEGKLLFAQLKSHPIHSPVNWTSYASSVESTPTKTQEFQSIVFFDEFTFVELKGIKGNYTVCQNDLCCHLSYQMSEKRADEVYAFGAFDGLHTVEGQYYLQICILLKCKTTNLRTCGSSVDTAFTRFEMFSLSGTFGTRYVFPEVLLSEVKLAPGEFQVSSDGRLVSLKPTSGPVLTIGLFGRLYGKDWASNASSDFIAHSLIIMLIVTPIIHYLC

Pantetheinase [11] = target: T1, Pantetheinase; assay: Inhibition of human plasma vanin-1 using pantetheine-7-amino-4-trifluoromethykournarin as substrate preincubated for 30 mins followed by substrate addition; format: cell-free
[12] = Intrinsic clearance in human hepatocytes assessed per million cells; format: ADME, cell-based, Hepatocyte
[13] = Intrinsic clearance in rat hepatocytes assessed per million cells; format: ADME, cell-based, Hepatocyte
[14] = Intrinsic clearance in human hepatocytes assessed per million cells by relay assay method; format: ADME, cell-based, Hepatocyte
Mus musculus [15] = assay: Anti-colitis activity against DSS-induced BALB/c mouse model assessed as increase in body weight at 100 mg/kg, po administered for 5 to 14 days; format: functional, organism-based; conditions: time 5-14 day
Mus musculus [16] = assay: Anti-colitis activity against DSS-induced BALB/c mouse model assessed as reduction in disease activity index at 100 mg/kg, po administered for 5 to 14 days; format: functional, organism-based; conditions: time 5-14 day
Mus musculus [17] = assay: Anti-colitis activity against DSS-induced colitis BALB/c mouse model assessed as effect on colon length at 100 mg/kg, po measured after 14 days; format: functional, organism-based; conditions: time 14.0 day

Compound | Intrinsic clearance [1] [µL/min/mg] | Papp A→B [2] [×10⁻⁶ cm/s] | logD [3] | IC50 (Pantetheinase [4]) [nM] | IC50 (Biotinidase) [nM] | other results
O=C(c1cnc(NC2(c3cncnc3)CCC2)nc1)N1CCC2(CCOCC2)C1 | 32 | 8 | 2 | – | – | –
CS(=O)(=O)C1CCCN(C(=O)c2cnc(NC3(c4cncnc4)CC3)nc2)C1 (racemic) | < 8 | 0.9 | -0.8 | 203 | > 13000 | K [5]: 4.1 10^5/M/s; Kd (Pantetheinase [6]): 37 nM; K [7]: 0.0088 s⁻¹; T1/2 [8]: 79 s; IC50 (Pantetheinase [9]): 122 nM
C[C@@H](Nc1ncc(C(=O)N2CCC3(CCOCC3)C2)cn1)c1cnccn1 | < 8 | 11 | 1 | – | > 50000 | –
CS(=O)(=O)[C@@H]1CCCN(C(=O)c2cnc(NC3(c4cncnc4)CC3)nc2)C1 | < 8 | 0.6 | -1 | 10.6 | 62000 | –
O=C(c1cnc(NC2(c3cncnc3)CC2)nc1)N1CCC2(CCOCC2)C1 | < 10 | 2 | 0 | – | 1020 | –
O=C(c1cnc(NC2(c3cnccn3)COC2)nc1)N1CCC2(CCOCC2)C1 | < 8 | 2 | -2 | – | – | –
O=C(c1cnc(NC2(c3cncnc3)COC2)nc1)N1CCC2(CCOCC2)C1 | < 8 | < 0.2 | -3 | – | 1300 | –
CC(C)(Nc1ncc(C(=O)N2CCC3(CCOCC3)C2)cn1)c1cncnc1 | 15 | 4 | 0.5 | 0.08 | 1900 | –
O=C(c1ccccc1)c1cnc(NCc2cccnc2)nc1 | 29 | 28 | 2.5 | 53 | – | –
C[C@@H](Nc1ncc(C(=O)N2CCC3(CCOCC3)C2)cn1)c1cncnc1 | < 8 | 6 | 0.2 | – | > 50000 | –
O=C(c1cnc(NC2(c3cnccn3)CCC2)nc1)N1CC2(CCOCC2)C1 | 19 | 17 | 0.8 | 0.04 | – | –
CS(=O)(=O)[C@H]1CCCN(C(=O)c2cnc(NC3(c4cncnc4)CC3)nc2)C1 | < 8 | 0.6 | -1 | 1100 | – | –
C[C@H](Nc1ncc(C(=O)N2CC3(CCOCC3)C2)cn1)c1cnccn1 | < 8 | 16 | 0.2 | 0.6 | 40 | –
CC(C)(Nc1ncc(C(=O)N2CC3(CCOCC3)C2)cn1)c1cnccn1 | < 13 | 14 | 0.6 | 0.11 | 1200 | IC50 (Pantetheinase [10]): 0.41 nM; IC50 (Pantetheinase [11]): 0.88 nM; CLint [12]: < 3.5 µL/min/1e6 cells; CLint [13]: 25.8 µL/min/1e6 cells; CLint [14]: 1.66 µL/min/1e6 cells
O=C(c1cnc(NCc2cccnc2)nc1)N1CCC2(CCOCC2)C1 | < 8 | 6 | 0.7 | – | 11300 | –
O=C(c1cnc(NC2(c3cnccn3)CCC2)nc1)N1CCC2(CCOCC2)C1 | 14 | 12 | 1 | 0.04 | 8900 | –
O=C(c1cnc(NCc2cccnc2)nc1)c1cccs1 | 14.5 | 24 | 2.2 | – | – | –
N#C[C@@H]1CCCN(C(=O)c2cnc(NC3(c4cncnc4)CC3)nc2)C1 | < 8 | 1.7 | -0.4 | 52 | 12700 | –
N#C[C@H]1CCCN(C(=O)c2cnc(NC3(c4cncnc4)CC3)nc2)C1 | – | – | – | 1200 | – | –
N#Cc1cccc(C(=O)c2cnc(NCc3ccccc3)nc2)c1 | 48 | 19 | 3 | – | – | –
O=C(c1cnc(NCc2cncnc2)nc1)N1CCC2(CCOCC2)C1 | 12 | 3 | 0 | – | 11000 | –
O=C(c1cnc(NCc2cnccn2)nc1)N1CC2(CCOCC2)C1 | < 8 | 9 | 0 | – | 7400 | –
N#Cc1cccc(C(=O)c2cnc(NCc3cccnc3)nc2)c1 | 38 | 28 | 2 | 4.4 | – | –
N#CC1CCCN(C(=O)c2cnc(NC3(c4cncnc4)CC3)nc2)C1 (racemic) | < 11 | 1.5 | -0.3 | 10.4 | 53000 | K [5]: 6 10^6/M/s; Kd (Pantetheinase [6]): 7.2 nM; K [7]: 0.026 s⁻¹; T1/2 [8]: 26 s; IC50 (Pantetheinase [9]): 45 nM
C[C@H](Nc1ncc(C(=O)N2CCC3(CCOCC3)C2)cn1)c1cncnc1 | < 8 | 7 | 2 | – | – | –
O=C(O)c1cc(/N=N/c2ccc(S(=O)(=O)Nc3ccccn3)cc2)ccc1O | – | – | – | – | – | Activity (Mus musculus [15]): Active; Activity (Mus musculus [16]): inactive; Activity (Mus musculus [17]): Active
CC(C)(Nc1ncc(C(=O)N2CCC3(CCOCC3)C2)cn1)c1cnccn1 | 18 | 17 | 0.6 | 0.06 | 3600 | –
N#Cc1cccc(C(=O)c2cnc(NCc3cncnc3)nc2)c1 | 16 | 23 | 1.2 | 33 | – | –
N#Cc1cccc(C(=O)c2cnc(NC3(c4ccccc4)CC3)nc2)c1 | 26 | 23 | 3 | – | – | –
Cc1cccc(C(=O)c2cnc(NCc3cccnc3)nc2)c1 | 51 | 17 | 2.9 | 52 | – | –
